Laboratory results as given in US9624170B2, “4-(piperrazin-1-yl)-pyrrolidin-2-one compounds as monoacylglycerol lipase (MAGL) inhibitors” (TAKEDA PHARMACEUTICAL COMPANY LIMITED, priority 2013, dated 2017).
Where a name gives a salt, the structure may show the parent alone.

biological target: T1, human MAGL (His-hMAGL) (Homo sapiens, UniProt Q99685); test: Measurement of MAGL inhibitory activity by mass spectrometry; assay type: biochemical; details: MAGL inhibitory rate, test compound 10 μM, His-hMAGL, substrate 2-arachidonylglycerol, RapidFire-mass spectrometry
T1 construct: made in house; host or cells: Escherichia coli BL21(DE3)
T1 sequence (Q99685 1-303): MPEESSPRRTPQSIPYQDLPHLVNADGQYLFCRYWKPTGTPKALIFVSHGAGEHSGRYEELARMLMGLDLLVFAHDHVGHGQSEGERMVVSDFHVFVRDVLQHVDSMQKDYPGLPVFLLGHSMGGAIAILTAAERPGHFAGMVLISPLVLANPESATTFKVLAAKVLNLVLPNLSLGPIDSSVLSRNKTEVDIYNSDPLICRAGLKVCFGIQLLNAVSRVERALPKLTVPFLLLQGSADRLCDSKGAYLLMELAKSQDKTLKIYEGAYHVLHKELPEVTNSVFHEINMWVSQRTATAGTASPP
Summary of the method: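 His-tagged human MAGL was reacted with 150 μM 2-arachidonylglycerol substrate (stock, added by 5 μL) for 10 min at room temperature, then stopped with formic acid. Arachidonic acid product was quantified by RapidFire–triple-quadrupole MS in negative SRM mode, corrected by arachidonic acid-d8, and converted to percent inhibition.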

Row | SMILES | inhibition at 10 µM
1 | O=C(c1nccs1)N1CCN(C2CC(=O)N(c3cccc(-c4ccccc4)c3F)C2)CC1 (centres unmarked) [Example 244, 1-(2-fluorobiphenyl-3-yl)-4-(4-(1,3-thiazol-2-ylcarbonyl)piperazin-1-yl)pyrrolidin-2-one] | 98%
2 | O=C(c1nccs1)N1CCN([C@@H]2CC(=O)N(c3ccc4c(ccn4-c4cnc(C(F)(F)F)cn4)c3)C2)CC1 [Example 245, (4R)-4-(4-(1,3-thiazol-2-ylcarbonyl)piperazin-1-yl)-1-(1-(5-(trifluoromethyl)pyrazin-2-yl)-1H-indol-5-yl)pyrrolidin-2-one] | 98%
3 | O=C(c1nccs1)N1CCN([C@@H]2CC(=O)N(c3ccc4c(ccn4-c4ccnc(C(F)(F)F)c4)c3)C2)CC1 [Example 246, (4R)-4-(4-(1,3-thiazol-2-ylcarbonyl)piperazin-1-yl)-1-(1-(2-(trifluoromethyl)pyridin-4-yl)-1H-indol-5-yl)pyrrolidin-2-one] | 98%
4 | Cc1ccc(-c2ccccc2)cc1N1CC(N2CCN(C(=O)c3nccs3)CC2)CC1=O (centres unmarked) [Example 247, 1-(4-methylbiphenyl-3-yl)-4-(4-(1,3-thiazol-2-ylcarbonyl)piperazin-1-yl)pyrrolidin-2-one] | 99%
5 | Cc1ccc(N2CC(N3CCN(C(=O)c4nccs4)CC3)CC2=O)cc1-c1ccccc1 (centres unmarked) [Example 248, 1-(6-methylbiphenyl-3-yl)-4-(4-(1,3-thiazol-2-ylcarbonyl)piperazin-1-yl)pyrrolidin-2-one] | 103%
6 | Cc1c(-c2ccccc2)cccc1N1CC(N2CCN(C(=O)c3nccs3)CC2)CC1=O (centres unmarked) [Example 249, 1-(2-methylbiphenyl-3-yl)-4-(4-(1,3-thiazol-2-ylcarbonyl)piperazin-1-yl)pyrrolidin-2-one] | 96%
7 | O=C(c1nccs1)N1CCN(C2CC(=O)N(c3ccc4c(ccn4-c4ccccc4)c3)C2)CC1 (centres unmarked) [Example 250, 1-(1-phenyl-1H-indol-5-yl)-4-(4-(1,3-thiazol-2-ylcarbonyl)piperazin-1-yl)pyrrolidin-2-one] | 101%
8 | Cc1cccc(-n2ccc3cc(N4CC(N5CCN(C(=O)c6nccs6)CC5)CC4=O)ccc32)c1 (centres unmarked) [Example 251, 1-(1-(3-methylphenyl)-1H-indol-5-yl)-4-(4-(1,3-thiazol-2-ylcarbonyl)piperazin-1-yl)pyrrolidin-2-one] | 102%
9 | Cc1ccnc(-n2ccc3cc(N4CC(N5CCN(C(=O)c6nccs6)CC5)CC4=O)ccc32)c1 (centres unmarked) [Example 252, 1-(1-(4-methylpyridin-2-yl)-1H-indol-5-yl)-4-(4-(1,3-thiazol-2-ylcarbonyl)piperazin-1-yl)pyrrolidin-2-one] | 103%
10 | Cc1ccccc1-n1ccc2cc(N3CC(N4CCN(C(=O)c5nccs5)CC4)CC3=O)ccc21 (centres unmarked) [Example 253, 1-(1-(2-methylphenyl)-1H-indol-5-yl)-4-(4-(1,3-thiazol-2-ylcarbonyl)piperazin-1-yl)pyrrolidin-2-one] | 101%
11 | O=C1CC(N2CCN(c3ncccn3)CC2)CN1c1cccc(I)c1 (centres unmarked) [Example 254, 1-(3-iodophenyl)-4-(4-(pyrimidin-2-yl)piperazin-1-yl)pyrrolidin-2-one] | 95%
12 | Cc1cc(-n2ccc3cc(N4CC(N5CCN(C(=O)c6nccs6)CC5)CC4=O)ccc32)ccn1 (centres unmarked) [Example 255, 1-(1-(2-methylpyridin-4-yl)-1H-indol-5-yl)-4-(4-(1,3-thiazol-2-ylcarbonyl)piperazin-1-yl)pyrrolidin-2-one] | 101%
13 | Cc1ncccc1-c1cccc(N2CC(N3CCN(c4ncccn4)CC3)CC2=O)c1 (centres unmarked) [Example 256, 1-(3-(2-Methylpyridin-3-yl)phenyl)-4-(4-(pyrimidin-2-yl)piperazin-1-yl)pyrrolidin-2-one] | 102%
14 | O=C(c1nccs1)N1CCN([C@@H]2CC(=O)N(c3ccc4c(ccn4-c4ncc(C(F)(F)F)cn4)c3)C2)CC1 [Example 257, (4R)-4-(4-(1,3-Thiazol-2-ylcarbonyl)piperazin-1-yl)-1-(1-(5-(trifluoromethyl)pyrimidin-2-yl)-1H-indol-5-yl)pyrrolidin-2-one hydrochloride] | 99%
15 | Cc1nc(C)c(-c2cccc(N3CC(N4CCN(C(=O)c5nccs5)CC4)CC3=O)c2)s1 (stereo not drawn) [Example 258, 1-(3-(2,4-dimethyl-1,3-thiazol-5-yl)phenyl)-4-(4-(1,3-thiazol-2-ylcarbonyl)piperazin-1-yl)pyrrolidin-2-one(optical isomer)] | 102%
16 | O=C(c1nccs1)N1CCN(C2CN(c3ccc(Oc4ccccc4)cc3)C(=O)C2O)CC1 (centres unmarked) [Example 260, 3-Hydroxy-1-(4-phenoxyphenyl)-4-(4-(1,3-thiazol-2-ylcarbonyl)piperazin-1-yl)pyrrolidin-2-one] | 84%
17 | O=C(c1nccs1)N1CCN(C2CN(c3ccc(Oc4ccccc4)cc3)C(=O)C2F)CC1 (centres unmarked) [Example 261, 3-Fluoro-1-(4-phenoxyphenyl)-4-(4-(1,3-thiazol-2-ylcarbonyl)piperazin-1-yl)pyrrolidin-2-one] | 100%
18 | Cc1cc(-c2ccc(N3CC(N4CCN(C(=O)c5nccs5)CC4)CC3=O)cc2)ccn1 (centres unmarked) [Example 264, 1-(4-(2-methylpyridin-4-yl)phenyl)-4-(4-(1,3-thiazol-2-ylcarbonyl)piperazin-1-yl)pyrrolidin-2-one] | 92%

More lines, now with the values ahead:

Row | inhibition at 10 µM | SMILES
19 | 97% | Cc1ccc(-c2ccc(N3CC(N4CCN(C(=O)c5nccs5)CC4)CC3=O)cc2)cn1 (centres unmarked) [Example 265, 1-(4-(6-methylpyridin-3-yl)phenyl)-4-(4-(1,3-thiazol-2-ylcarbonyl)piperazin-1-yl)pyrrolidin-2-one]
20 | 101% | Cc1ccccc1-c1cccc(N2CC(N3CCN(c4ncccn4)CC3)CC2=O)c1 (centres unmarked) [Example 268, 1-(2′-methylbiphenyl-3-yl)-4-(4-(pyrimidin-2-yl)piperazin-1-yl)pyrrolidin-2-one]
21 | 101% | O=C1CC(N2CCN(c3ncccn3)CC2)CN1c1cccc(-c2ccccc2Cl)c1 (centres unmarked) [Example 269, 1-(2′-chlorobiphenyl-3-yl)-4-(4-(pyrimidin-2-yl)piperazin-1-yl)pyrrolidin-2-one]
22 | 100% | O=C(c1cscn1)N1CCN(C2CC(=O)N(c3ccc4c(ccn4-c4ccc(F)cc4)c3)C2)CC1 (centres unmarked) [Example 270, 1-(1-(4-fluorophenyl)-1H-indol-5-yl)-4-(4-(1,3-thiazol-4-ylcarbonyl)piperazin-1-yl)pyrrolidin-2-one]
23 | 101% | O=C(c1nccs1)N1CCN([C@@H]2CC(=O)N(c3ccc4c(c3)CCN4c3ncc(C(F)(F)F)cn3)C2)CC1 [Example 271, (4R)-4-(4-(1,3-thiazol-2-ylcarbonyl)piperazin-1-yl)-1-(1-(5-(trifluoromethyl)pyrimidin-2-yl)-2,3-dihydro-1H-indol-5-yl)pyrrolidin-2-one]
24 | 100% | Cc1ncnc(C)c1-c1cccc(N2CC(N3CCN(C(=O)c4nccs4)CC3)CC2=O)c1 (centres unmarked) [Example 273, 1-(3-(4,6-Dimethylpyrimidin-5-yl)phenyl)-4-(4-(1,3-thiazol-2-ylcarbonyl)piperazin-1-yl)pyrrolidin-2-one]
25 | 96% | Cc1cccc(-c2ccc(N3CC(N4CCN(C(=O)c5nccs5)CC4)CC3=O)cc2)n1 (centres unmarked) [Example 274, 1-(4-(6-methylpyridin-2-yl)phenyl)-4-(4-(1,3-thiazol-2-ylcarbonyl)piperazin-1-yl)pyrrolidin-2-one]
26 | 103% | O=C(c1nccs1)N1CCN(C2CC(=O)N(c3cccc(-c4ccc(F)cc4Cl)c3)C2)CC1 (centres unmarked) [Example 275, 1-(2′-chloro-4′-fluorobiphenyl-3-yl)-4-(4-(1,3-thiazol-2-ylcarbonyl)piperazin-1-yl)pyrrolidin-2-one]
27 | 102% | O=C(c1nccs1)N1CCN(C2CC(=O)N(c3ccc(F)c(-c4ccc(F)cc4Cl)c3)C2)CC1 (centres unmarked) [Example 276, 1-(2′-chloro-4′,6-difluorobiphenyl-3-yl)-4-(4-(1,3-thiazol-2-ylcarbonyl)piperazin-1-yl)pyrrolidin-2-one]
28 | 98% | O=C(c1nccs1)N1CCN(C2CC(=O)N(c3ccc(F)c(-c4ccccc4Cl)c3)C2)CC1 (centres unmarked) [Example 277, 1-(2′-chloro-6-fluorobiphenyl-3-yl)-4-(4-(1,3-thiazol-2-ylcarbonyl)piperazin-1-yl)pyrrolidin-2-one]
29 | 101% | Cc1cc(C)cc(-n2ccc3cc(N4CC(N5CCN(C(=O)c6nccs6)CC5)CC4=O)ccc32)c1 (centres unmarked) [Example 279, 1-(1-(3,5-dimethylphenyl)-1H-indol-5-yl)-4-(4-(1,3-thiazol-2-ylcarbonyl)piperazin-1-yl)pyrrolidin-2-one]
30 | 101% | O=C(c1nccs1)N1CCN(C2CC(=O)N(c3ccc4c(ccn4-c4cccc(C(F)(F)F)c4)c3)C2)CC1 (centres unmarked) [Example 280, 4-(4-(1,3-thiazol-2-ylcarbonyl)piperazin-1-yl)-1-(1-(3-(trifluoromethyl)phenyl)-1H-indol-5-yl)pyrrolidin-2-one]

same assay, conditions: MAGL inhibitory rate, test compound 10 μM, His-hMAGL, substrate 2-arachidonylglycerol, RapidFire-mass spectrometry; 10 µM

Row | % inhibition at 10 μM | SMILES
31 | 99% | O=C(c1nccs1)N1CCN(C2CC(=O)N(c3cccc(-c4cccnc4Cl)c3)C2)CC1 (stereo not drawn) [Example 266, 1-(3-(2-chloropyridin-3-yl)phenyl)-4-(4-(1,3-thiazol-2-ylcarbonyl)piperazin-1-yl)pyrrolidin-2-one(optical isomer)]
32 | 102% | O=C1Cc2ccc(-c3cccc(N4CC(N5CCN(C(=O)c6nccs6)CC5)CC4=O)c3)cc2N1 (stereo not drawn) [Example 267, 6-(3-(2-oxo-4-(4-(1,3-thiazol-2-ylcarbonyl)piperazin-1-yl)pyrrolidin-1-yl)phenyl)-1,3-dihydro-2H-indol-2-one(optical isomer)]
